Tests used:
Assay type in all cases: cell-based
[1] = system: HIV-1 (NL4-3 strain); assay: CPE-based antiviral assay in HIV-1-infected MT-4 cells (XTT); details: Human immunodeficiency virus 1, NL43, MT4, 120 h, cytopathic effect-based assay, MT-4 cells infected by HIV-1 (NL4-3 strain), 5 days post-infection
Text: (§1) Based on a facile [2 + 2 + 2]‐cycloisomerization strategy, a robust three‐step synthetic entry into a novel family of helical extended diquats (helquats) was developed. After a straightforward Knoevenagel condensation of the respective helquat parent with different aldehydes (Fig. 2A), more than 500 helquat-based compounds were synthesized and screened for anti-HIV-1 activity in an assay based on the inhibition of the virus-induced cytopathic effect in MT-4 cells, evaluated after 5 days post-infection by an XTT assay. In parallel with the screening, the XTT assay was also used to determine the cytotoxicity of all compounds (Fig. 2B; for more information on the synthesis and characterization of the compounds, see the Supplementary Information). […]
(§2) XTT screening. MT-4 cells were seeded in 80 µl of the RPMI without Phenol Red in the amount of 3x10^4 cells per well of a 96-well plate. 10 µl of tested compounds (500 µM at 5% DMSO) or controls (5% DMSO at PBS, AZT 1mM, SQV 100 µM) were added to the cells; after one-hour incubation at 37 °C, HIV-1 (NL4-3 strain) was added with MOI = 0.05 and the infected cells were cultivated for five days.
The viability of the cells was measured by the XTT cell viability and proliferation assay. Briefly, 50 µl of the XTT solution with the addition of PMS (both VWR) was added to the cultivation media and incubated in a humidified incubator maintained at 37 °C with 5% CO2 for four hours, after which absorbance at 560 nm was measured on a VICTOR plate reader (PerkinElmer). […]
(§3) For compounds selected as hits in the initial screening, the effective concentration that inhibits 50% of the viral activity (EC50) and the cytotoxic concentration that reduces the MT -4 cell viability by 50% (CC50) were determined. Viral activity was evaluated after five days as an HIV-1-induced cytopathic effect quantified by the XTT assay. Selected hits were tested at two-fold serial dilutions from 50 µM concentration, and the drug concentrations required to reduce the viral cytopathic effect by 50% (EC 50) as well as the drug concentrations that reduced MT-4 cell viability by 50% (CC50) were calculated by nonlinear regression using GraphPad Prism v.8.0.0 (GraphPad Software).

[2] = in vitro; details: human
Text: as §1, §2
The viability of the cells was measured by the XTT cell viability and proliferation assay. Briefly, 50 µl of the XTT solution with the addition of PMS (both VWR) was added to the cultivation media and incubated in a humidified incubator maintained at 37 °C with 5% CO2 for four hours, after which absorbance at 560 nm was measured on a VICTOR plate reader (PerkinElmer).
The cytotoxicity of the tested compounds was evaluated separately without virus addition and analysed by the same assay.
as §3

[3] = system: HIV-1; assay: Adsorption assay (RT activity in supernatant); details: 10 µM, compound and virions added to MT-4 cells simultaneously, washed out after 2 h, RT activity 5 days after infection
Description: (§4) To address virion binding and entry in a competitive setting, we performed an adsorption assay where test compounds and virions were added to MT-4 cells simultaneously and were washed out after 2 h of incubation. In parallel, we performed a replication assay where MT-4 cells were infected with HIV-1 and the tested compounds were added 1 h later. In both cases, the infection was evaluated by measuring reverse transcriptase activity in a cell-free supernatant 5 days after the infection (Fig. 3). As controls, PBS (phosphate-buffered saline) and inhibitors of different HIV-1 life-cycle steps were used: AMD (AMD3100), an inhibitor of gp120 attachment to CXCR4 receptors of the target cell, thus preventing HIV-1 adsorption and entry; AZT (azidothymidine), an inhibitor of reverse transcriptase; and RAL (raltegravir), an integrase inhibitor.
(§5) MT-4 cells were seeded in 80 µl of the Roswell Park Memorial Institute (RPMI) medium in the amount of 2 × 10^5 cells per well of a 96-well plate, and 10 µl of the virus stock were immediately added with the final multiplicity of infection (MOI) of 0.05. For a replication assay, the infected cells were incubated at 37 °C for 1 h before the addition of compounds being tested (10 µM final concentration) and subsequently cultivated at 37 °C for another 5 days. For an adsorption test, by contrast, the compounds (10 µM final concentration) were added simultaneously with the virus, and after 2 h of incubation, the cells were washed three times with PBS to remove the compounds and unbound virions; after the addition of 100 µl of the RPMI medium, the cells were cultivated at 37 °C for 5 days. Five days post-infection, aliquots of virus-containing cell-free supernatants were harvested and analysed by reverse transcriptase (RT) assay (described in the Supplementary Information). The experiments were performed as biological replicates where the sample size for each condition was n = 3.
(§6) RT assay. The reverse transcriptase (RT) activity in a cell-free supernatant was assessed by an α-32P RT assay. Briefly, the RT activity in the culture medium, which corresponded to the amount of HIV-1, was used to produce a DNA copy of an RNA template by extending a complementary oligo dT DNA primer with radiolabelled nucleotides. A reaction mixture containing 50 mM Tris-HCl pH 7.8, 75 mM KCl, 2 mM DTT, 5 mM MgCl2 and 0.5% NP-40 (all Sigma-Aldrich), 5 µg per ml of poly (rA)-poly (dT) (The Midlan Certified Reagent Company) with 1 µl 10-mCi/ml [α-32P]dTTP (American Radiolabeled Chemicals) per ml, and the tested sample was incubated at 37°C for two hours, after which 10 µl were spotted on DEAE blotting paper (PerkinElmer) and air-dried. After five washes with SSC buffer (0.15 M NaCl, 0.015 M sodium citrate) and three additional washes with 85% ethanol, the blotting paper was exposed to Phosphoscreen overnight, which was scanned on a Typhoon 9410 Phosphorimager instrument (GE Healthcare). The intensity of the dots was analysed by the ImageQuant software (GE Healthcare).

[4] = system: HIV-1; assay: Replication assay (RT activity in supernatant); details: 10 µM, compound added 1 h after infection of MT-4 cells, RT activity 5 days after infection
Description: as §4, §5, §6

SMILES	EC50 [1] [µM]	CC50 at 5 days [2] [µM]	effect on virus adsorption [3]	effect on viral replication [4]
Cc1c(C)c2c(c3c1CC[n+]1ccc(/C=C/c4c5ccccc5c(C)c5ccccc45)cc1-3)-c1cc(/C=C/c3c4ccccc4c(C)c4ccccc34)cc[n+]1CC2 [Compound 1]	< 1	> 50	inhibited neither adsorption nor replication, or their effect was weak	inhibited neither adsorption nor replication, or their effect was weak
CN1/C(=C/c2cc3[n+](c4ccccc24)CCCc2ccc4c(c2-3)-c2cccc[n+]2CCC4)Sc2ccccc21 [Compound 2]	< 1	24.4	inhibited adsorption	–
C(=C\c1cccc2[n+]1CCc1ccc3c(c1-2)-c1cccc(/C=C/c2ccc(C(=C(c4ccccc4)c4ccccc4)c4ccccc4)cc2)[n+]1CC3)/c1ccc(C(=C(c2ccccc2)c2ccccc2)c2ccccc2)cc1 [Compound 4]	1.51	> 50	inhibited adsorption	–
Cc1c(C)c2c(c3c1CC[n+]1ccc(/C=C/c4ccc5c(c4)CCO5)cc1-3)-c1cc(/C=C/c3ccc4c(c3)CCO4)cc[n+]1CC2 [Compound 5]	1.67	> 50	inhibited neither adsorption nor replication, or their effect was weak	inhibited neither adsorption nor replication, or their effect was weak
C(=C\c1cc2ccccc2[nH]1)/c1cc[n+]2c(c1)-c1c(ccc3c1-c1cccc[n+]1CCC3)CCC2 [Compound 7]	1.79	> 50	minimal or no effect on virus adsorption	significantly impairing viral replication
Cc1c(C)c2c(c3c1CC[n+]1ccc(/C=C/c4ccc(N(C)C)cc4)cc1-3)-c1cc(/C=C/c3ccc(N(C)C)cc3)cc[n+]1CC2 [Compound 8]	1.79	> 50	inhibited adsorption	–
Cn1c(/C=C/c2cccc3[n+]2CCc2ccc4c(c2-3)-c2cccc(/C=C/c3cc5ccccc5n3C)[n+]2CC4)cc2ccccc21 [Compound 9]	1.96	> 50	inhibited adsorption	–
CN1/C(=C/c2cccc3[n+]2CCCc2ccc4c(c2-3)-c2cccc(/C=C3\Sc5ccccc5N3C)[n+]2CCC4)Sc2ccccc21 [Compound 10]	2.18	> 50	inhibited neither adsorption nor replication, or their effect was weak	inhibited neither adsorption nor replication, or their effect was weak
Cc1c(C)c2c(c3c1CC[n+]1ccc(/C=C/c4ccc(-c5ccccc5)s4)cc1-3)-c1cc(/C=C/c3ccc(-c4ccccc4)s3)cc[n+]1CC2 [Compound 11]	2.64	> 50	inhibited adsorption	–
COc1ccc(/C=C/c2cc[n+]3c(c2)-c2c(c(C)c(C)c4c2-c2cc(/C=C/c5ccc(OC)cc5OC)cc[n+]2CC4)CC3)c(OC)c1 [Compound 13]	2.69	> 50	inhibited neither adsorption nor replication, or their effect was weak	inhibited neither adsorption nor replication, or their effect was weak
Cc1c(C)c2c(c3c1CC[n+]1ccc(/C=C/c4c[nH]c5ccc(Br)cc45)cc1-3)-c1cc(/C=C/c3c[nH]c4ccc(Br)cc34)cc[n+]1CC2 [Compound 17]	3.01	> 50	inhibited neither adsorption nor replication, or their effect was weak	inhibited neither adsorption nor replication, or their effect was weak
Cc1c(C)c2c(c3c1CC[n+]1ccc(/C=C/c4c[nH]c5ccccc45)cc1-3)-c1cc(/C=C/c3c[nH]c4ccccc34)cc[n+]1CC2 [Compound 18]	3.18	> 50	inhibited neither adsorption nor replication, or their effect was weak	inhibited neither adsorption nor replication, or their effect was weak
COc1ccc(/C=C/c2cc[n+]3c(c2)-c2c(c(C)c(C)c4c2-c2cc(/C=C/c5ccc(OC)c6ccccc56)cc[n+]2CC4)CC3)c2ccccc12 [Compound 19]	3.39	> 50	inhibited neither adsorption nor replication, or their effect was weak	inhibited neither adsorption nor replication, or their effect was weak
